How the values were obtained:
RBL-2H3 = assay: Intracellular calcium increasing activity in RBL2H3 (FLIPR); type: cell-based; details: RBL2H3, 1 μM
Experimental: (§1) RBL-2H3 (hereinafter RBL2H3) was incubated in α-MEM (Invitrogen) supplemented with 10% fetal calf serum. Vector plasmid pcDNA3.1 for animal cell expression, in which the nucleotide sequence containing the initiation codon to the termination codon of human TGR12 (DNA having the nucleotide sequence represented by SEQ ID NO: 32) was incorporated, was stably expressed in RBL-2H3 to establish human TGR12-expressed RBL-2H3 cell line (hereinafter RBL2H3-TGR12). RBL2H3-TGR12 was incubated in α-MEM (Invitrogen) supplemented with 10% fetal calf serum and 200 μg/mL of Geneticin.
(§2) The intracellular calcium increasing activity was assayed as follows. RBL2H3 and RBL2H3-TGR12 were plated in a 96-well plate at a density of 40,000 cells/well and incubated overnight. The medium was then discarded and 100 μL/well of 4 μM Fluo3-AM (Dojin Kagaku)-containing assay buffer [Hank's Balanced Salt Solution (Invitrogen), 20 mM HEPES (Dojin Kagaku) and 2.5 mM Probenecid (Sigma)] was added. The mixture was allowed to stand for an hour at 37° C. Various TGR12 (Peptide Institute, Inc.) or calcium ionophore A23187 (Wako Pure Chemical) was diluted in 0.05% CHAPS-containing assay buffer. After the cells were washed with the assay buffer, fluorescence emitted with changes in intracellular calcium was measured using FLIPR (Molecular Device). A sample, 50 μL, was added at a rate of 50 μL/sec. 10 seconds after initiation of the assay. Fluorescence was measured every 1 second during the first 60 seconds and every 6 seconds during the next 120 seconds. The highest fluorescence intensity during 3 minutes was made the maximum activity under the stimulation conditions, which was taken as an average of 3 wells. The EC50 values were calculated using Graphpad PRISM 4 (Graphpad Software).

human TGR12 = biological target: T1, human TGR12 (Homo sapiens, UniProt Q96LB1); assay: Intracellular calcium increasing activity in RBL2H3-TGR12 (FLIPR); type: cell-based; details: RBL2H3-TGR12, 1 μM
T1 construct: expressed in transfected cells
T1 sequence (Q96LB1 1-330): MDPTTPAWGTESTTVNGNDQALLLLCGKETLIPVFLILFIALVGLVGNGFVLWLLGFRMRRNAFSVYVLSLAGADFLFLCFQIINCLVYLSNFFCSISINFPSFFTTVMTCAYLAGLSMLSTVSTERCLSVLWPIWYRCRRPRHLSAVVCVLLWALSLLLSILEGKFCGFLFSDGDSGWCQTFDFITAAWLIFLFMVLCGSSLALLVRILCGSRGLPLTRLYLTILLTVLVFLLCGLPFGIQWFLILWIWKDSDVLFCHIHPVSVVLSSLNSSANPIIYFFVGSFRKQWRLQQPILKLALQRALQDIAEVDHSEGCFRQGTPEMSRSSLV
Experimental: as §1, §2

TGR12 = type: cell-based, human; details: CHO-TGR12, 1 μM
Experimental: CHO/dhfr^− cells (hereinafter CHO) were incubated in α-MEM (Invitrogen) supplemented with 10% fetal calf serum. After a termination codon in the TGR12-encoding nucleotide sequence was removed, a nucleotide sequence ligated with the nucleotide sequence encoding GFP (Wako Pure Chemical) [hereinafter briefly referred to as TGR12-GFP (DNA having the nucleotide sequence represented by SEQ ID NO: 31)] was incorporated into vector plasmid pAKKO-111H (the same vector plasmid as pAKKO1.11H described in Biochim. Biophys. Acta, 1219, 251-259 (1994)) for animal cell expression, and the vector plasmid was stably expressed to establish TGR12-GFP-expressed CHO cell line (hereinafter CHO-TGR12). CHO-TGR12 was incubated in nucleic acid-free α-MEM medium (Invitrogen) containing 10% dialyzed fetal calf serum.
CHO-TGR12 was plated in a 96-well plate at a density of 30,000 cells/well. After incubation overnight, the medium was discarded and 100 μL/well of assay buffer [Hank's Balanced Salt Solution (Invitrogen), 20 mM HEPES (Dojin Chemical Laboratory) and 2.5 mM Probenecid (Sigma)] containing 4 μM Fluo3-AM (Dojin Chemical Laboratory) was added, which was then allowed to stand for an hour at 37° C. […] After the cells were washed with assay buffer, fluorescence reflecting changes in intracellular calcium levels was assayed on FLIPR (Molecular Device). Ten seconds after initiation of the assay, 50 μL of a sample was added at a rate of 50 μL/second. Fluorescence measurement was taken every 1 second during the first 60 seconds and then every 6 seconds during the next 120 seconds; the highest fluorescence intensity over a 3 minute period was taken as the maximum activity under the stimulation condition, representing the mean value of 3 wells. The EC50 values were determined using Graphpad PRISM 4 (Graphpad Software).

[1] = system: human mast cell line LAD 2; assay: Effect of NK1 receptor antagonists on substance P- or A23187-induced degranulation of LAD 2; type: cell-based
Experimental: Subsequently, Tyrode's buffer containing 50 μL of NK1 antagonist GR-82334 (Sigma, Inc.) in various concentrations or L-703606 (Sigma, Inc.) was added and incubation was continued at 37° C. for 5 minutes. […] Next, 0.2 M glycine/NaCO3 (pH 10.7) was added in a volume of 0.1-fold of the reaction solution to stop the reaction. The activity was then assayed using Fusion-α (Perkin-Elmer). […] The inhibition activity by the NK1 receptor antagonist was expressed as the percentage of the β-hexosaminidase activity when the NK1 antagonist was added in various concentrations, based on the β-hexosaminidase activity when no NK1 antagonist was added.

Structure (SMILES): CNc1ccc2oc(C[C@H]3O[C@@]4(CC[C@H]3C)O[C@H]([C@H](C)C(=O)c3ccc[nH]3)[C@H](C)C[C@H]4C)nc2c1C(=O)O [A23187]
- maximum activity in the calcium increasing effect (RBL-2H3): 25338
- maximum activity in the calcium increasing effect (human TGR12): 25624
- maximum activity in the calcium increasing effect (TGR12): 27379

Structure (SMILES): Ic1ccccc1CN[C@@H]1C2CCN(CC2)[C@@H]1C(c1ccccc1)c1ccccc1 [L-703606]
- degranulation, % of β-hexosaminidase activity without NK1 antagonist ([1]; A23187 stimulation 0.3 μM, antagonist 100 nM): 98.4%
- degranulation, % of β-hexosaminidase activity without NK1 antagonist ([1]; A23187 stimulation 0.3 μM, antagonist 300 nM): 97.2%
- degranulation, % of β-hexosaminidase activity without NK1 antagonist ([1]; A23187 stimulation 0.3 μM, antagonist 1 μM): 97.4%
- degranulation, % of β-hexosaminidase activity without NK1 antagonist ([1]; A23187 stimulation 0.3 μM, antagonist 3 μM): 91.5%
- degranulation, % of β-hexosaminidase activity without NK1 antagonist ([1]; A23187 stimulation 0.3 μM, antagonist 10 μM): 37.1%
- degranulation, % of β-hexosaminidase activity without NK1 antagonist ([1]; A23187 stimulation 0.3 μM, antagonist 30 μM): 2.4%
- inhibition of the degranulation by the substance P and A23187 stimulation ([1]; concentration range of 3 μM): did not inhibit
- inhibition of the degranulation by the substance P and A23187 stimulation ([1]; concentration range of 10 μM to 30 μM, non-specifically to TGR12 and NK1 receptor): inhibited
- degranulation, % of β-hexosaminidase activity without NK1 antagonist ([1]; substance P stimulation 0.3 μM, antagonist 100 nM): 101.1%
- degranulation, % of β-hexosaminidase activity without NK1 antagonist ([1]; substance P stimulation 0.3 μM, antagonist 300 nM): 97.9%
- degranulation, % of β-hexosaminidase activity without NK1 antagonist ([1]; substance P stimulation 0.3 μM, antagonist 1 μM): 98.8%
- degranulation, % of β-hexosaminidase activity without NK1 antagonist ([1]; substance P stimulation 0.3 μM, antagonist 3 μM): 100.0%
- degranulation, % of β-hexosaminidase activity without NK1 antagonist ([1]; substance P stimulation 0.3 μM, antagonist 10 μM): 39.4%
- degranulation, % of β-hexosaminidase activity without NK1 antagonist ([1]; substance P stimulation 0.3 μM, antagonist 30 μM): 3.2%
